Data taken from patent US4863920A, “Imidazodiazepine derivatives for treatment of disorders of the central nervous system” (Hoffmann-La Roche Inc., priority 1987, dated 1989).

Legend:
[1] = molecular target: central benzodiazepine receptors (cerebral cortex); experiment: Affinity to benzodiazepine receptors (inhibition of tritiated diazepam binding in cerebral cortex); settings: inhibition of specific binding of tritiated diazepam, read-out: Affinity to benzodiazepine receptors IC 50
Description: The affinity of compounds of formula I to the central benzodiazepine receptors was determined according to the method described in Life Science 20, 2101-2110 (1977) and Science 198, 849-851 (1977). According to this method, the inhibition of the binding of tritiated diazepam at the specific benzodiazepine receptors in the cerebral cortex by the respective test substances is ascertained. The IC50 ("50% inhibiting concentration") is that concentration of the respective test substance which brings about a 50 percent inhibition of the specific binding of the tritiated diazepam at the specific benzodiazepine receptors in the cerebral cortex.

[2] = system: diazepam effect in the pentetrazole test; experiment: Antagonism of diazepam in the pentetrazole test; format: in vivo; settings: Mus musculus, po; mice; diazepam 5 mg/kg i.p. one hour before and compound p.o. 15 minutes before pentetrazole 120 mg/kg i.p.; read-out: Antagonism of diazepam ED 50
Description: This property was used to elaborate the test described hereinafter which permits the investigation of compounds capable of antagonizing the central properties of 1,4-benzodiazepines having tranquillizing activity.
(§1) The antagonistic activity of the compounds investigated, that is, their capability to counteract the effect of the diazepam in the pentetrazole test, is determined by counting the mice which suffer spasmodic seizures in this test. The ED50 denotes the amount of the respective test compound in mg/kg (p.o.) which in 50% of the animals counteracts the diazepam effect in the above test.

[3] = Acute toxicity, single oral administration to rats; settings: rat, in vivo, read-out: Toxicity LD 50
Source text: The results which have been obtained with representative members of the class of compound defined by formula I in the experiments described previously are compiled in the following Table. Moreover, the Table contains data concerning the acute toxicity of some of these compounds (LD50 in mg/kg in the case of single oral administration to rats).

[4] = system: pentetrazole-induced spasmodic seizures; experiment: Antipentetrazole test (protection from pentetrazole seizures); format: in vivo; settings: Rattus norvegicus, po; female rats 60-80 g; p.o. 30 minutes before 120 mg/kg pentetrazole i.p.; 10 animals per dosage; Probit; read-out: Antipemtetrazole test ED 50
Description: The central properties of the compounds of formula I in accordance with the invention can be determined, for example, in the antipentetrazole animal model which is described hereinafter and which is generally recognized for recording anticonvulsant properties.
In this animal model, the compound under investigation is administered orally to female rats weighing 60-80 g and 30 minutes later there are administered i.p. 120 mg/kg of pentetrazole, which causes emprosthotonus and tonic stretchings of the fore and/or hind limbs in unprotected experimental animals 1-4 minutes after the injection. Ten experimental animals are used per dosage of test substance. After counting the protected experimental animals the ED50 is determined according to the Probit method. The ED50 is that dosage which protects 50% of the experimental animals from the spasmodic seizures caused by pentetrazole.

[5] = system: pentetrazole-induced spasmodic seizures; experiment: Pentetrazole test, protection by diazepam; format: in vivo; settings: 5 mg/kg (i.p.) diazepam, supramaximal dosage; more than 900 mice
Description: as §1

| SMILES | IC50 [1] [nM] | ED50 [2] [mg/kg] | LD50 [3] [mg/kg] | ED50 [4] [mg/kg] | protection from spasmodic seizures in the pentetrazole test [5] |
| --- | --- | --- | --- | --- | --- |
| C#Cc1ncn2c1CN(C)C(=O)c1c(Cl)cccc1-2 [A, 7-chloro-3-ethynyl-4,5-dihydro-5-methyl-6H-imidazo[1,5-a][1,4]benzodiazepin-6-one] | 4.5 | 0.24 | 312 to 625 | – | – |
| CN1Cc2c(C#CC(C)(C)O)ncn2-c2cccc(Br)c2C1=O [E, 7-bromo-4,5-dihydro-3-(3-hydroxy-3-methyl-1-butynyl)-5-methyl-6H-imidazo[1,5-a][1,4]benzodiazepin-6-one] | 2 | – | 500 to 1000 | 0.29 | – |
| C#Cc1ncn2c1[C@@H]1CCCN1C(=O)c1c(Cl)cccc1-2 [D, (S)-8-chloro-1-ethynyl-11,12,13,13a-tetrahydro-9H-imidazo[1,5-a]pyrrolo[2,1-c][1,4]benzodiazepin-9-one] | 2.4 | > 50 | > 4000 | 1.5 | – |
| C#Cc1ncn2c1CN(C)C(=O)c1cc(F)ccc1-2 [B, 3-ethynyl-8-fluoro-4,5-dihydro-5-methyl-6H-imidazo[1,5-a][1,4]benzodiazepine-6-one] | 24 | 1.5 | 312 to 625 | – | – |
| C=Cc1ncn2c1CN(C)C(=O)c1c(Cl)cccc1-2 [F, 7-chloro-4,5-dihydro-5-methyl-3-vinyl-6H-imidazo[1,5-a][1,4]benzodiazepin-6-one] | 7.6 | 1.2 | 1250 to 2500 | – | – |
| CN1C(=O)CN=C(c2ccccc2)c2cc(Cl)ccc21 [diazepam] | – | – | – | – | protected all experimental animals from spasmodic seizures |
| CC#Cc1ncn2c1CN(C)C(=O)c1c(Cl)cccc1-2 [C, 7-chloro-4,5-dihydro-5-methyl-3-(1-propynyl)-6H-imidazo[1,5-a][1,4]benzodiazepin-6-one] | 2.3 | 0.36 | > 5000 | – | – |
